pIC50: −log10 of the molar value.
Molecular target: T1, Calmodulin-sensitive adenylate cyclase (Bacillus anthracis, UniProt P40136)
T1 sequence (P40136 whole entry): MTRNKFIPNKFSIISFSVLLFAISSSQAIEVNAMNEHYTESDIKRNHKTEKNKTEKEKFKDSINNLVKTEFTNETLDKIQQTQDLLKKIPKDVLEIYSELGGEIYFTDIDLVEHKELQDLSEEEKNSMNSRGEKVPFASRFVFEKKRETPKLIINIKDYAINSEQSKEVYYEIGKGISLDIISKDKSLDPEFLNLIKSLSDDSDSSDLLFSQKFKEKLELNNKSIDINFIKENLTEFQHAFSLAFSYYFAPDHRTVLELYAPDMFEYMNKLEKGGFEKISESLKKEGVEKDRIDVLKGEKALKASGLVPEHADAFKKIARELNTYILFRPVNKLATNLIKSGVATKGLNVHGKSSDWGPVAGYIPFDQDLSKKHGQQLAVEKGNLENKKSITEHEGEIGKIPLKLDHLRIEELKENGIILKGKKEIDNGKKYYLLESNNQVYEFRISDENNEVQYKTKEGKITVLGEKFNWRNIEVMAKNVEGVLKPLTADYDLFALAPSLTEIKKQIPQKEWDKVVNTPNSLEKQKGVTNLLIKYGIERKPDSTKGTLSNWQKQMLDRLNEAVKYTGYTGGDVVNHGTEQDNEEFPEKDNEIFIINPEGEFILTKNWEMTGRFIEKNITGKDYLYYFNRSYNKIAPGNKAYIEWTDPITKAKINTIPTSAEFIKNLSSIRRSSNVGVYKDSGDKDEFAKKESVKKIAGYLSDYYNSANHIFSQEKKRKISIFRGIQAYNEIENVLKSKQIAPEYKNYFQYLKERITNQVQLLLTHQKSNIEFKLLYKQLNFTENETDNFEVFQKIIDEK
Experiment: Inhibition of Bacillus anthracis edema factor-induced edema in RAW264.7 mouse macrophages by cAMP-specific ELISA
Type: cell-based

Structure (SMILES) | pIC50
O=C1C=C(c2ccc3ncccc3c2)CCC1 | < 4.00
O=C1C=C(c2cccs2)CCC1 | < 4.00
Cn1cc(C2=CC(=O)CCC2)cn1 | < 4.00
O=C1C=C(c2cccnc2)CCC1 | < 4.00
O=C1C=C(c2ccsc2)CCC1 | < 4.00
COc1cccc(C2=CC(=O)CCC2)n1 | < 4.00
O=C1C=C(c2ccoc2)CCC1 | < 4.00
O=C1C=C(c2cccc3c2oc2ccccc23)CCC1 | < 4.00
O=C1C=C(c2cccc(O)c2)CCC1 | < 4.00
O=C1C=C(c2ccccc2)CCC1 | < 4.00
CC1(C)CC(=O)C=C(c2ccc3[nH]ccc3c2)C1 | < 4.00
O=C1C=C(c2nccs2)CCC1 | < 4.00
CC1(C)CC(=O)C=C(c2cccc3c2oc2ccccc23)C1 | < 4.00

— ChEMBL document CHEMBL1157493, “Synthesis and screening of small molecule inhibitors of anthrax edema factor” (Bioorg Med Chem Lett, 2008)
